Results: US20240409536A1, “COMPOUNDS AND METHODS FOR MODULATING SPLICING” (REMIX THERAPEUTICS INC., priority 2021, published 2024)

How the values were obtained:
HTT mRNA = test: Gene panel canonical junction qPCR assay, HTT CJ mRNA decrease; assay type: cell-based, human; conditions: Homo sapiens, canonical junction qPCR, read-out: HTT IC50 (decrease in CJ mRNA levels)
Summary of the method: (§1)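 A673 or K562 cells treated with compound; canonical exon-exon junction mRNA quantified by cDNA synthesis and RT-qPCR with junction-spanning primer/probe, normalized to GAPDH, GUSB or PPIA and DMSO (2^(−ΔΔCt)). Percent response from set ΔCt assay windows fitted to 4-parameter logistic; IC50 for CJ decrease.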

SMN2 mRNA = test: Gene panel canonical junction qPCR assay, SMN2 CJ mRNA decrease; assay type: cell-based, human; conditions: Homo sapiens, canonical junction qPCR, read-out: SMN2 IC50 (decrease in CJ mRNA levels)
Summary of the method: as §1

Target C = test: HiBiT protein abundance assay, Target C (K562 HiBiT knock-in cells); assay type: cell-based, human; conditions: 24 hours
Summary of the method: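 Protein abundance read by HiBiT lytic luminescence after 24 h compound exposure (37 °C) of knock-in K562 cells, 10000 cells/well in IMDM+1% FBS. Dosing: 10 points, 3-fold, top 10 μM final, ≤0.25% DMSO. Four-parameter logistic fit gave concentration reducing abundance to 50% of untreated control.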

K562 cells = test: Cell Titer Glo 2.0 cell viability assay in K562 cells; conditions: 72 hours
MYB mRNA = test: Gene panel canonical junction qPCR assay, MYB CJ mRNA decrease; assay type: cell-based, human; conditions: Homo sapiens, canonical junction qPCR, read-out: MYB IC50 (decrease in CJ mRNA levels)
Summary of the method: as §1

HiBiT-tagged HTT protein = test: HiBiT protein abundance assay, HTT (K562 HiBiT knock-in cells); assay type: cell-based, human; conditions: 24 hours
Summary of the method: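 Luminescent readout of HiBiT-tagged endogenous protein after lysis, following 24 h compound exposure of knock-in K562 lines at 37 °C. Ten 3-fold concentrations from 10 μM final, DMSO ≤0.25%. Four-parameter logistic fit of normalized response gives concentration halving abundance (IC50).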

Row | IC50 (HTT mRNA) | IC50 (SMN2 mRNA) | IC50 (Target C) | IC50 (MYB mRNA) | IC50 (HiBiT-tagged HTT protein) | Structure (SMILES) | Viability (K562 cells)
1 | 100 to 1000 nM | < 100 nM | 100 to 1000 nM | < 100 nM | 100 to 1000 nM | CCNC1CCN(c2ccc(C(=O)Nc3cc(F)c4nc(C)cn4c3)c3nc(C)ccc23)CC1 [Compound 228, 5-[4-(ethylamino)piperidin-1-yl]-N-{8-fluoro-2-methylimidazo[1,2-a]pyridin-6-yl}-2-methylquinoline-8-carboxamide] | A (A represents <100 nM)
2 | > 10000 nM | < 100 nM | > 10000 nM | 100 to 1000 nM | > 10000 nM | COCCOc1ccc2c(N3CCC(N(C)C)CC3)ccc(C(=O)Nc3cc(F)c4nc(C)cn4c3)c2n1 [Compound 229, 5-[4-(dimethylamino)piperidin-1-yl]-N-{8-fluoro-2-methylimidazo[1,2-a]pyridin-6-yl}-2-(2-methoxyethoxy)quinoline-8-carboxamide] | A (A represents <100 nM)
3 | 1000 to 10000 nM | < 100 nM | 1000 to 10000 nM | 100 to 1000 nM | 1000 to 10000 nM | COCCOc1ccc2c(N3C[C@@H](C)N[C@@H](C)C3)ccc(C(=O)Nc3cc(F)c4nc(C)cn4c3)c2n1 [Compound 232, 5-[(3R,5S)-3,5-dimethylpiperazin-1-yl]-N-{8-fluoro-2-methylimidazo[1,2-a]pyridin-6-yl}-2-(2-methoxyethoxy)quinoline-8-carboxamide] | –
4 | 1000 to 10000 nM | < 100 nM | 1000 to 10000 nM | 100 to 1000 nM | 1000 to 10000 nM | CCNC1CCN(c2ccc(C(=O)Nc3cc(F)c4nc(C)cn4c3)c3nc(OCCOC)ccc23)CC1 [Compound 233, 5-[4-(ethylamino)piperidin-1-yl]-N-{8-fluoro-2-methylimidazo[1,2-a]pyridin-6-yl}-2-(2-methoxyethoxy)quinoline-8-carboxamide] | A (A represents <100 nM)

Further lines, the molecule ahead of its results:

Row | Structure (SMILES) | IC50 (HTT mRNA) | IC50 (SMN2 mRNA) | IC50 (Target C) | IC50 (MYB mRNA) | IC50 (HiBiT-tagged HTT protein) | Viability (K562 cells)
5 | CNC1CCN(c2ccc(C(=O)Nc3cc(F)c4nc(C)cn4c3)c3ncc(OC)nc23)C1 (stereo in doubt) [Compound 227, (R)—N-(8-fluoro-2-methylimidazo[1,2-a]pyridin-6-yl)-2-methoxy-8-(3-(methylamino)pyrrolidin-1-yl)quinoxaline-5-carboxamide 2,2,2-trifluoroacetate] | > 10000 nM | < 100 nM | 100 to 1000 nM | 1000 to 10000 nM | 1000 to 10000 nM | A (A represents <100 nM)
6 | Cc1cn2cc(NC(=O)c3ccc(N4CCC(NC(C)(C)C)C4)c4ccnnc34)cc(F)c2n1 (stereo not drawn) [Compound 109] | 1000 to 10000 nM | 100 to 1000 nM | 1000 to 10000 nM | 1000 to 10000 nM | 1000 to 10000 nM | –
7 | Cc1cnc2c(C(=O)Nc3cc(F)c4nc(C)cn4c3)ccc(N3C[C@@H](C)N[C@@H](C)C3)c2n1 [Compound 217, 8-((3R,5S)-3,5-dimethylpiperazin-1-yl)-N-{8-fluoro-2-methylimidazo[1,2-a]pyridin-6-yl}-2-methylquinoxaline-5-carboxamide] | – | < 100 nM | 100 to 1000 nM | < 100 nM | 100 to 1000 nM | B (B represents 100-1000 nM)
8 | Cc1cn2cc(NCc3ccc(N4CCNCC4)c4ccnnc34)cc(F)c2n1 [Compound 230, 8-fluoro-2-methyl-N-{[5-(piperazin-1-yl)cinnolin-8-yl]methyl}imidazo[1,2-a]pyridin-6-amine] | 1000 to 10000 nM | > 10000 nM | > 10000 nM | > 10000 nM | > 10000 nM | D (D represents greater than 10 μM in K562 cells)
9 | CNC1CCN(c2ccc(C(=O)Nc3cc(F)c4nc(C)cn4c3)c3nnccc23)C1 (stereo not drawn) [Compound 231, N-{8-fluoro-2-methylimidazo[1,2-a]pyridin-6-yl}-5-[3-(methylamino)pyrrolidin-1-yl] cinnoline-8-carboxamide] | 1000 to 10000 nM | < 100 nM | 1000 to 10000 nM | < 100 nM | 1000 to 10000 nM | B (B represents 100-1000 nM)
